Values quoted from earlier work as cited in US20160143979A1, “Long Pepper Extract an Effective Anticancer Treatment” (priority 2014, published 2016).

Tested on: cancer cells
Settings: previous study

COc1cc(/C=C/C(=O)N2CCC=CC2=O)cc(OC)c1OC [piperlongumine]
concentration required for significant cell death induction: 10
